In patent publication US4311694A, “Amorphous coprecipitates of 4-(monoalkylamino) benzoic acid and derivatives and certain water-soluble materials” (priority 1979, dated 1982):

Experiments:
[1] = Comparative water solubility of precipitates (Example 4); format: physicochemical; settings: 1 mg./ml. of drug
physchem = format: physicochemical; settings: water, drug alone, read-out: soluble in water

Question: Which “% p-Hexadecylaminobenzoic acid Sodium Salt in Solution, After 1 minute” value ([1]; 1 minute) does the source give for `CCCCCCCCCCCCCCCCNc1ccc(C(=O)[O-])cc1.[Na+]` here?
Answer: 4%

Question: What about the “% p-Hexadecylaminobenzoic acid Sodium Salt in Solution, After 30 minutes” value ([1]; 30 minutes) of the same compound?
Answer: 2%

Question: What about the solubility (physchem) of the same compound?
Answer: 1 µg/mL
